Test results reported in PMC8560763, “Roles of metal ions in the selective inhibition of oncogenic variants of isocitrate dehydrogenase 1” (Communications Biology, 2021).
Where “and” joins values, the source holds several entries; their conditions need not be identical. Identical values can stand only once.

Key:
wt IDH1 [1] = target: T1, wt IDH1 (Homo sapiens, UniProt O75874); assay: Absorbance assay: kinetics of reductive reaction (2OG to isocitrate) by wt IDH1; assay type: biochemical; settings: wt IDH1, reductive reaction with Mg^2+
T1 construct: made in house; host or cells: Escherichia coli BL21(DE3) pLyS
Experimental: (§1) All experiments were performed in (at least) triplicate.
(§2) KM values were determined by varying concentrations of the substrate/cofactor under investigation while maintaining the concentrations of other components using standard conditions. […] Graphs were fitted using GraphPad Prism to obtain kinetic parameters.

[2] = ITC, metal ion binding to DL-isocitrate; settings: read-out: KD for metal ion binding to DL-isocitrate; metal ion (10 mM), DL-isocitrate (500 µM), 50 mM Tris-HCl, pH 7.5
Experimental: ITC experiments were conducted using a Malvern MicroCal PEAQ-ITC Automated machine. In general, the protein was prepared in 50 mM Tris-HCl ± 5 mM metal chloride salts at pH 7.5; substrates were dissolved in the same buffer. Four hundred microlitres of cell solution and 200 µL of titrant were transferred to an ITC plate. Titrations were conducted at 25 °C with an initial delay of 60 s and a stir speed of 750 r.p.m. The injection setup consisted of 19 injections that have one initial injection of 0.4 µL and 18 injections of 2.0 µL each with 150 s between the injections. The thermodynamic parameters were obtained using the MicroCal PEAQ-ITC analysis software.

wt IDH1 [3] = target: T1, wt IDH1; assay: Absorbance assay: effect of metal ions on catalysis and inhibition of wt IDH1; assay type: biochemical; settings: wt IDH1, metal ions 10 mM
Experimental: Inhibition assays of wt or R132H IDH1 with metal ions were conducted with a 12 min pre-incubation of metal ions (25 µL, final concentration 10 mM) and enzyme (25 µL) before the addition of substrate (25 µL) and cofactor (25 µL). […] The difference in absorbance, ΔA340, in the linear range of the reaction profile was converted to % residual activity with the DMSO control being the 100% residual activity reference.

wt IDH1 [4] = target: T1, wt IDH1; assay: Isothermal titration calorimetry (ITC), binding to wt IDH1; settings: alone, EDTA-treated wt IDH1, 50 mM Tris-HCl, pH 7.5
Experimental: ITC experiments were conducted using a Malvern MicroCal PEAQ-ITC Automated machine. In general, the protein was prepared in 50 mM Tris-HCl ± 5 mM metal chloride salts at pH 7.5; substrates were dissolved in the same buffer. Four hundred microlitres of cell solution and 200 µL of titrant were transferred to an ITC plate. […] The injection setup consisted of 19 injections that have one initial injection of 0.4 µL and 18 injections of 2.0 µL each with 150 s between the injections. The thermodynamic parameters were obtained using the MicroCal PEAQ-ITC analysis software.

wt IDH1 [5] = target: T1, wt IDH1; assay: Absorbance assay (NADPH, 340 nm): kinetics of oxidative reaction (isocitrate to 2OG) by wt IDH1; assay type: biochemical
Experimental: as §1, §2

wt IDH1 [6] = target: T1, wt IDH1; assay: Differential scanning fluorimetry (DSF) thermal shift, wt IDH1; assay type: binding; settings: for Δ in Tm: Fig. 2e; for thermal stabilisation: wt IDH1, Mg^2+ alone, 0.032–20 mM
Experimental: Thermal shift experiments were carried out using Sypro Orange dye and a CFX96 Touch^TM Real-Time PCR Detection System (Bio-Rad)[69]. […] The standard assay buffer contains 50 mM Tris-HCl at pH 7.5. Various concentrations of substrates were mixed with IDH1 for thermal stabilisation studies. […] Bio-Rad CFX Manager was used to determine the melting temperature, Tm.

[7] = wt IDH1, oxidative reaction with Mg^2+ (10 mM MgCl2)

T1 sequence (O75874 2-414): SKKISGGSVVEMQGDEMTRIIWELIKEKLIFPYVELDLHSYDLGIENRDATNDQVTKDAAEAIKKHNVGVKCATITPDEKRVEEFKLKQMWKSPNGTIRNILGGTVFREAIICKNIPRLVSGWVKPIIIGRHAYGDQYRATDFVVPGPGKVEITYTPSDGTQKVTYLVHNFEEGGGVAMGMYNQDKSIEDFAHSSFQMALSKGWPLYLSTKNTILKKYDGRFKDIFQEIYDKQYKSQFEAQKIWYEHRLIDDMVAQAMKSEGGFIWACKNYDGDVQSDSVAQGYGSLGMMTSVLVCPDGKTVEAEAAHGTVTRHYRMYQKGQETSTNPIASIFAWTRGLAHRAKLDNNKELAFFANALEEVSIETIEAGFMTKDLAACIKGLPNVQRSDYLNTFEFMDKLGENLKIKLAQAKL

Question: What does the source list for `[Cl-].[Cl-].[Mg+2]` [MgCl2]?
Answer: kcat (wt IDH1 [1]): 2.1 ± 0.1 s⁻¹; Kd [2]: 1500 µM; effect of metal ion on catalysis (wt IDH1 [3]): promoted; Kd (wt IDH1 [4]): > 8000 µM; Velocity (wt IDH1 [5]; Fig. S2c, [MgCl2] 1.95312 μM): 0.01456 µM/s and 0.01492 µM/s and 0.01895 µM/s; Velocity (wt IDH1 [5]; Fig. S2c, [MgCl2] 3.90625 μM): 0.02158 µM/s and 0.02123 µM/s and 0.02246 µM/s; Velocity (wt IDH1 [5]; Fig. S2c, [MgCl2] 7.8125 μM): 0.03106 µM/s and 0.03492 µM/s and 0.04106 µM/s; Velocity (wt IDH1 [5]; Fig. S2c, [MgCl2] 15.625 μM): 0.05387 µM/s and 0.06159 µM/s and 0.06633 µM/s; Velocity (wt IDH1 [5]; Fig. S2c, [MgCl2] 31.25 μM): 0.08809 µM/s and 0.1025 µM/s and 0.1206 µM/s; Velocity (wt IDH1 [5]; Fig. S2c, [MgCl2] 62.5 μM): 0.1304 µM/s and 0.136 µM/s and 0.1651 µM/s; Velocity (wt IDH1 [5]; Fig. S2c, [MgCl2] 250 μM): 0.1516 µM/s and 0.1788 µM/s and 0.1943 µM/s; Velocity (wt IDH1 [5]; Fig. S2c, [MgCl2] 500 μM): 0.1764 µM/s and 0.1771 µM/s and 0.2318 µM/s; Velocity (wt IDH1 [5]; Fig. S2c, [MgCl2] 1000 μM): 0.1957 µM/s and 0.2076 µM/s and 0.2279 µM/s; Velocity (wt IDH1 [5]; Fig. S2c, [MgCl2] 2000 μM): 0.2057 µM/s and 0.2199 µM/s and 0.2304 µM/s; Velocity (wt IDH1 [5]; Fig. S2d, [MgCl2] 15.625 μM): 0.01053 µM/s and 0.01316 µM/s; Velocity (wt IDH1 [5]; Fig. S2d, [MgCl2] 31.25 μM): 0.02369 µM/s and 0.03159 µM/s and 0.03685 µM/s; Velocity (wt IDH1 [5]; Fig. S2d, [MgCl2] 62.5 μM): 0.03422 µM/s and 0.03685 µM/s and 0.04738 µM/s; Velocity (wt IDH1 [5]; Fig. S2d, [MgCl2] 250 μM): 0.0737 µM/s and 0.08423 µM/s and 0.07633 µM/s; Velocity (wt IDH1 [5]; Fig. S2d, [MgCl2] 500 μM): 0.09476 µM/s and 0.07896 µM/s; Velocity (wt IDH1 [5]; Fig. S2d, [MgCl2] 1000 μM): 0.1027 µM/s and 0.08949 µM/s and 0.09476 µM/s; Velocity (wt IDH1 [5]; Fig. S2d, [MgCl2] 2000 μM): 0.08949 µM/s and 0.1079 µM/s and 0.09212 µM/s; kcat (wt IDH1 [5]; wt IDH1, oxidative reaction with Mg^2+): 50 ± 4 s⁻¹; Km (wt IDH1 [5]; [7]): 36 ± 4 µM; Vmax (wt IDH1 [5]; [7]): 214 ± 5 nM/s; Km (wt IDH1 [5]; wt IDH1 isocitrate oxidation, in the presence of 150 mM NaCl): 94 µM; Δ in Tm (wt IDH1 [6]; wt IDH1, 0.8 mM MgCl2, replicates): -0.3 °C and -0.1 °C (2×); Δ in Tm (wt IDH1 [6]; wt IDH1, 4 mM MgCl2, replicates): -0.1 °C; Δ in Tm (wt IDH1 [6]; wt IDH1, 20 mM MgCl2, replicates): -0.5 °C and -0.1 °C (2×); thermal stabilisation (wt IDH1 [6]): no thermal shift; thermal stabilisation (wt IDH1 [6]; listed as Mg^2+): does not stabilise; thermal stabilisation (shift in Tm) (wt IDH1 [6]; wt IDH1, divalent metal ions (5 mM), 50 mM Tris-HCl, pH 7.5): less stabilising effect
